Positions count from the first letter of the chain named.
Assays:
[1] = target: T1, HLA-DP4 molecule DPA1*0103/DPB1*0401 (DP401) (Homo sapiens, UniProt P04440+P20036); assay: biochemical; format: binding
T1 construct: purified from various human B lymphocyte lines transformed with the Epstein Barr virus (EBV), which are homozygotes for DP; endogenous in cells
T1 sequence (P20036 29-260): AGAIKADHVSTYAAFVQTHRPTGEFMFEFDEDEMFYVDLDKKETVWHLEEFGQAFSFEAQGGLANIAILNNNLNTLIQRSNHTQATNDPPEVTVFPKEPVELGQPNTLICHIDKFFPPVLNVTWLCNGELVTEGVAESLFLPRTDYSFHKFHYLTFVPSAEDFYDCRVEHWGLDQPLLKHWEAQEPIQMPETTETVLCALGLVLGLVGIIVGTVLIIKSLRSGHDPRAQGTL
T1 sequence (P04440 30-258): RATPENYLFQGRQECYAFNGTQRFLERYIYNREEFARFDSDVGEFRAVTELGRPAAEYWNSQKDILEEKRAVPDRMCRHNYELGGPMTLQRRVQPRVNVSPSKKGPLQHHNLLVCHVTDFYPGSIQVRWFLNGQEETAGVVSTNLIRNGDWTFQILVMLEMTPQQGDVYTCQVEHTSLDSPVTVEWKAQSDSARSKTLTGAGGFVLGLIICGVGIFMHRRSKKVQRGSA

[2] = target: T2, HLA-DP4 molecule DPA1*0103/DPB1*0402 (DP402) (Homo sapiens, UniProt P04440+P20036); assay: biochemical; format: binding
T2 construct: purified from various human B lymphocyte lines transformed with the Epstein Barr virus (EBV), which are homozygotes for DP; endogenous in cells
T2 sequence (P20036 29-260): T1 sequence (P20036 29-260)
T2 sequence (P04440 30-258 A65V/A84D/A85E): T1 sequence (P04440 30-258) with A36V, A55D, A56E

Compound	Loss of binding to DP*0401 (ratio of the IC50 values for the mutant peptide and for the UNK1 peptide) [1]	Loss of binding to DP*0402 (ratio of the IC50 values for the mutant peptide and for the UNK1 peptide) [2]	IC50 ([1]; IC50 (nM) DP0401, Api m1 overlapping peptides, tracer bUNK 1-17 10 nM, pH 5, 24 h)
KYAAATQFEPLAA [UNK F5A]	41	5.7	–
KYFAATQFEPNAA [UNK L13N]	17	10	–
KYFAATQFEPEAA [UNK L13E]	11	8	–
KYFAATQTEPLAA [UNK F10T]	1171	476	–
AYFAATQFEPLAA [UNK K3A]	0.9	1	–
KYFAATQFEPVAA [UNK L13V]	2.5	1.9	–
KYFAATAFEPLAA [UNK Q9A]	0.8	0.6	–
KYFAAFQFEPLAA [UNK T8F]	2.7	1.7	–
KYFAANQFEPLAA [UNK T8N]	4.1	4.8	–
KYFAATQNEPLAA [UNK F10N]	2460	1809	–
KYFAASQFEPLAA [UNK T8S]	2.7	3.4	–
KYNAATQFEPLAA [UNK F5N]	398	76	–
KYFAATQKEPLAA [UNK F10K]	420	350	–
KYFAAKQFEPLAA [UNK T8K]	31	3.6	–
KYFAAYQFEPLAA [UNK T8Y]	4.1	2.4	–
KYFAATQFEPRAA [UNK L13R]	64	43	–
KYFAKTQFEPLAA [UNK A7K]	2	1.2	–
KYLAATQFEPLAA [UNK F5L]	3.6	6	–
KYFAATQFEPFAA [UNK L13F]	1.7	4	–
KYFAATQFEALAA [UNK P12A]	1.2	0.9	–
KYFAATQYEPLAA [UNK F10Y]	2.4	3.4	–
KYFAATQFKPLAA [UNK E11K]	1.3	0.7	–
KYFAATQFEPKAA [UNK L13K]	81	70	–
KAFAATQFEPLAA [UNK Y4A]	1.2	0.9	–

Compound	Loss of binding to DP*0401 (ratio of the IC50 values for the mutant peptide and for the UNK1 peptide) [1]	Loss of binding to DP*0402 (ratio of the IC50 values for the mutant peptide and for the UNK1 peptide) [2]	IC50 ([1]; IC50 (nM) DP0401, Api m1 overlapping peptides, tracer bUNK 1-17 10 nM, pH 5, 24 h)
KKFAATQFEPLAA [UNK Y4K]	1.2	1	–
KYFAATQFAPLAA [UNK E11A]	0.5	0.5	–
KYFAATQFEPLKA [UNK A13K]	1.7	1.4	–
KYFKATQFEPLAA [UNK A6K]	1.6	1	–
KYFAAAQFEPLAA [UNK T8A]	0.8	0.8	–
KYFAARQFEPLAA [UNK T8R]	17	6.7	–
KYFAATQFEKLAA [UNK P12K]	1.8	1.4	–
KYTAATQFEPLAA [UNK F5T]	234	126	–
KYEAATQFEPLAA [UNK F5E]	117	123	–
KYFAATQEEPLAA [UNK F10E]	1405	1190	–
KYFAATKFEPLAA [UNK Q9K]	1.6	0.9	–
KYFAATQLEPLAA [UNK F10L]	7.2	6.7	–
CC[C@H](C)[C@H](NC(=O)[C@H](CC(C)C)NC(=O)[C@H](CC(N)=O)NC(=O)[C@H](Cc1ccccc1)NC(=O)[C@H](Cc1ccc(O)cc1)NC(=O)[C@H](CCSC)NC(=O)[C@H](CCCCN)NC(=O)CNC(=O)[C@@H](NC(=O)[C@H](Cc1ccccc1)NC(=O)[C@@H](N)Cc1ccc(O)cc1)C(C)C)C(=O)N[C@@H](CC(=O)O)C(=O)N[C@H](C(=O)N[C@@H](CCCCN)C(=O)N[C@@H](CS)C(=O)N[C@@H](Cc1ccc(O)cc1)C(=O)N[C@@H](CCCCN)C(=O)N[C@@H](CC(C)C)C(=O)O)[C@@H](C)O [81-98]	–	–	2250 nM
KYFAATQAEPLAA [UNK F10A]	336	62	–
KYKAATQFEPLAA [UNK F5K]	569	297	–
KYFAATQFEPLAK [UNK A15K]	1.7	1.4	–
KYYAATQFEPLAA [UNK F5Y]	3	3.9	–
KYFAATQFEPAAA [UNK L13A]	3.1	2.3	–
KYFAATQFEPDAA [UNK L13D]	9.4	9	–
KYFAALQFEPLAA [UNK T8L]	1.9	2.6	–
KYFAAEQFEPLAA [UNK T8E]	2.7	3.7	–
KYFAADQFEPLAA [UNK T8D]	2	2.3	–
KYFAATQFEPYAA [UNK L13Y]	2	15	–

— patent US20100324829A1, “METHOD OF SELECTING HLA-DP4 LIGANDS AND THE APPLICATIONS THEREOF” (priority 2001, published 2010)
